Laboratory results taken from ChEMBL document CHEMBL6182924, “Discovery of a Novel and Potent MET Transcription Inhibitor Targeting Promoter G-Quadruplex for the Treatment of NSCLC” (J Med Chem, 2025).
The source made the active and inactive calls. The calls are words filed in the database; no cut-off is given here.

Tests used:
[1] = Acute toxicity in Sprague-Dawley rat assessed as heart damage at 500 to 2000 mg/kg, po measured every 2 days by H and E staining based analysis; type: organism-based; conditions: in vivo, 48 h, dose 500-2000 mg/kg, time 2 day
NCI-H1975 [2] = assay: Induction of apoptosis in human NCI-H1975 cells assessed as necrotic cells at 0.5 uM incubated for 24 hrs by Annexin V-FITC/PI staining based flow cytometry analysis (reference value: 7.33 %); type: functional
A549 [3] = assay: Antitumor activity against human A549 cells xenografted in BALB/c mouse assessed as downregulation of AKT expression in tumor at 20 mg/kg, po administered once a day and measured for 20 days by Western blot analysis; type: functional, organism-based; conditions: time 20.0 day
A549 [4] = assay: Induction of apoptosis in human A549 cells assessed as viable cells at 0.5 uM incubated for 24 hrs by Annexin V-FITC/PI staining based flow cytometry analysis (reference value: 91.3%); type: functional; conditions: read-out: Activity
[5] = Toxicity in BALB/c mouse xenografted with human A549 cells assessed as heart damage at 20 mg/kg, po administered once a day and measured after 20 days by H and E staining based analysis; type: organism-based; conditions: in vivo, 480 h, time 20 day
A549 [6] = assay: Inhibition of cell invasion in human A549 cells incubated for 12 hrs; type: functional, cell-based; conditions: dose 0.5-2 µM
[7] = Acute toxicity in Sprague-Dawley rat assessed as kidney damage at 500 to 2000 mg/kg, po measured every 2 days by H and E staining based analysis; type: organism-based; conditions: in vivo, 48 h, dose 500-2000 mg/kg, time 2 day
NCI-H1975 [8] = assay: Antiproliferative activity against human NCI-H1975 cells incubated for 3 days by CCK-8 assay; type: functional, cell-based; conditions: NCI-H1975, 72 h
A549 [9] = assay: Antiproliferative activity against human A549 cells incubated for 3 days by CCK-8 assay; type: functional, cell-based; conditions: A549, 72 h
[10] = Toxicity in BALB/c mouse xenografted with human A549 cells assessed as heart damage at 40 mg/kg, po administered once a day and measured after 20 days by H and E staining based analysis; type: organism-based; conditions: in vivo, 480 h, time 20 day
[11] = Toxicity in BALB/c mouse xenografted with human A549 cells assessed as kidney damage at 20 mg/kg, po administered once a day and measured after 20 days by H and E staining based analysis; type: organism-based; conditions: in vivo, 480 h, time 20 day
A549 [12] = assay: Induction of cell cycle arrest in human A549 cells assessed as accumulation of cells at G1 phase at 1 uM measured for 24 hrs by PI/Rnase staining based flow cytometry (reference value: 75.2 %); type: functional
A549 [13] = assay: Downregulation of c-Met expression in human A549 cells at 1 uM by Western blot analysis; type: functional, cell-based; conditions: time <= 72.0 hrs
NCI-H1975 [14] = assay: Induction of cell cycle arrest in human NCI-H1975 cells assessed as accumulation of cells at G2 phase at 1 uM measured for 24 hrs by PI/Rnase staining based flow cytometry (reference value: 14.8 %); type: functional
NCI-H1975 [15] = assay: Downregulation of c-Met mRNA expression in human NCI-H1975 cells at 0.5 to 1 uM incubated for 24 hrs by qRT-PCR analysis; type: functional, cell-based; conditions: dose 0.5-1 µM
A549 [16] = assay: Antitumor activity against human A549 cells xenografted in BALB/c mouse assessed as tumor growth inhibition at 20 mg/kg, po administered once a day and measured up to 24 days; type: functional; conditions: A549, 576 h, time <= 24 day, read-out: TGI
A549 [17] = assay: Downregulation of c-Met mRNA expression in human A549 cells at 0.5 to 1 uM incubated for 24 hrs by qRT-PCR analysis; type: functional, cell-based; conditions: dose 0.5-1 µM
A549 [18] = assay: Induction of cell cycle arrest in human A549 cells assessed as accumulation of cells at G1 phase at 2 uM measured for 24 hrs by PI/Rnase staining based flow cytometry (reference value: 75.2 %); type: functional
A549 [19] = assay: Antitumor activity against human A549 cells xenografted in BALB/c mouse assessed as tumor growth inhibition at 20 mg/kg, ip administered once a day and measured up to 24 days; type: functional; conditions: A549, 576 h, time <= 24 day, read-out: TGI
Quadruplex DNA [20] = assay: Binding affinity to c-MET G4-quadruplex DNA (unknown origin) assessed as change in melting temperature
[21] = Acute toxicity in Sprague-Dawley rat assessed as spleen damage at 500 to 2000 mg/kg, po measured every 2 days by H and E staining based analysis; type: organism-based; conditions: in vivo, 48 h, dose 500-2000 mg/kg, time 2 day
[22] = Toxicity in BALB/c mouse xenografted with human A549 cells assessed as kidney damage at 40 mg/kg, po administered once a day and measured after 20 days by H and E staining based analysis; type: organism-based; conditions: in vivo, 480 h, time 20 day
A549 [23] = assay: Inhibition of colony formation in human A549 cells incubated for 2 weeks by crystal violet staining based analysis; type: functional, cell-based; conditions: dose 0.5-2 µM
[24] = Acute toxicity in Sprague-Dawley rat assessed as liver damage at 500 to 2000 mg/kg, po measured every 2 days by H and E staining based analysis; type: organism-based; conditions: in vivo, 48 h, dose 500-2000 mg/kg, time 2 day
A549 [25] = assay: Induction of apoptosis in human A549 cells assessed as late apoptotic cells at 2 uM incubated for 24 hrs by Annexin V-FITC/PI staining based flow cytometry analysis (reference value: 2.56 %); type: functional
A549 [26] = assay: Antitumor activity against human A549 cells xenografted in BALB/c mouse assessed as downregulation of c-MET expression in tumor at 20 mg/kg, po administered once a day and measured for 20 days by Western blot analysis; type: functional, organism-based; conditions: time 20.0 day
A549 [27] = assay: Downregulation of c-Met expression in human A549 cells incubated for 72 hrs by Western blot analysis; type: functional, cell-based; conditions: dose <= 1000.0 nM
NCI-H1975 [28] = assay: Induction of apoptosis in human NCI-H1975 cells assessed as late apoptotic cells at 2 uM incubated for 24 hrs by Annexin V-FITC/PI staining based flow cytometry analysis (reference value: 2.27 %); type: functional
[29] = Acute toxicity in Sprague-Dawley rat at 500 to 2000 mg/kg, po measured every 2 days; type: organism-based; conditions: in vivo, 48 h, dose 500-2000 mg/kg, time 2 day
NCI-H1975 [30] = assay: Induction of apoptosis in human NCI-H1975 cells assessed as viable cells at 0.5 uM incubated for 24 hrs by Annexin V-FITC/PI staining based flow cytometry analysis (reference value: 90.1 %); type: functional; conditions: read-out: Activity
A549 [31] = assay: Induction of apoptosis in human A549 cells assessed as viable cells at 1 uM incubated for 24 hrs by Annexin V-FITC/PI staining based flow cytometry analysis (reference value: 91.3%); type: functional; conditions: read-out: Activity
NCI-H1975 [32] = assay: Induction of apoptosis in human NCI-H1975 cells assessed as early apoptotic cells at 2 uM incubated for 24 hrs by Annexin V-FITC/PI staining based flow cytometry analysis (reference value: 0.35 %); type: functional
[33] = Toxicity in BALB/c mouse xenografted with human A549 cells assessed as spleen damage at 20 mg/kg, po administered once a day and measured after 20 days by H and E staining based analysis; type: organism-based; conditions: in vivo, 480 h, time 20 day
NCI-H1975 [34] = assay: Induction of apoptosis in human NCI-H1975 cells assessed as viable cells at 2 uM incubated for 24 hrs by Annexin V-FITC/PI staining based flow cytometry analysis (reference value: 90.1 %); type: functional; conditions: read-out: Activity
[35] = Toxicity in BALB/c mouse xenografted with human A549 cells assessed as body weight loss at 40 mg/kg, po administered once a day and measured after 20 days; type: organism-based; conditions: in vivo, 480 h, time 20 day
Quadruplex DNA [36] = assay: Binding affinity to c-MET G4-quadruplex DNA (unknown origin) assessed as dissociation constant by MST assay; type: nucleic-acid assay

COc1cccc(-c2ccc(-c3nc4c5cccnc5c5ncccc5c4[nH]3)o2)c1
Activity [1]: Non-toxic | Activity (NCI-H1975 [2]): 4.81% | Activity (A549 [3]): Active | viability at 0.5 µM (A549 [4]): 83.2% | Activity [5]: Non-toxic | inhibition (A549 [6]): Dose-dependent-effect | Activity [7]: Non-toxic | IC50 (NCI-H1975 [8]): 1.68 µM | IC50 (A549 [9]): 0.43 µM | Activity [10]: Non-toxic | Activity [11]: Non-toxic | Activity (A549 [12]): 77.2% | Activity (A549 [13]): Time-dependent-effect | Activity (NCI-H1975 [14]): 11.5% | Activity (NCI-H1975 [15]): Active | inhibition in vivo at 20 mg/kg (A549 [16]): 43% | Activity (A549 [17]): Active | Activity (A549 [18]): 83.9% | inhibition in vivo at 20 mg/kg (A549 [19]): 55.6% | ΔTm (Quadruplex DNA [20]): 10.8 °C | Activity [21]: Non-toxic | Activity [22]: Non-toxic | inhibition (A549 [23]): Dose-dependent-effect | Activity [24]: Non-toxic | Activity (A549 [25]): 23.5% | Activity (A549 [26]): Active | Activity (A549 [27]): Dose-dependent-effect | Activity (NCI-H1975 [28]): 14.2% | Activity [29]: Non-toxic | viability at 0.5 µM (NCI-H1975 [30]): 85.1% | viability at 1 µM (A549 [31]): 74% | Activity (NCI-H1975 [32]): 2.21% | Activity [33]: Non-toxic | viability at 2 µM (NCI-H1975 [34]): 79.7% | Activity [35]: Non-toxic | Kd (Quadruplex DNA [36]): 0.0735 µM
